Data: publication PMC5218480 (PLoS ONE, 2017)

Tested on: MV-4-11 cells
Experiment: Gene expression microarray analysis (Affymetrix PrimeView) and GSEA
Format: cell-based, human
Design: RFU PODN (11730768_x_at) / Fold change /veh PODN (11730768_x_at) / RFU LINC00158 (11744669_a_at) / Fold change /veh LINC00158 (11744669_a_at) / RFU DUSP10 (11751237_a_at) / Fold change /veh DUSP10 (11751237_a_at) / RFU ID3 (11757404_x_at) / Fold change /veh ID3 (11757404_x_at) / RFU PLEKHG5 (11737974_s_at) / Fold change /veh PLEKHG5 (11737974_s_at) / RFU LRRC4B (11730491_at) / Fold change /veh LRRC4B (11730491_at) / RFU GIMAP4 (11747438_a_at) / Fold change /veh GIMAP4 (11747438_a_at) / RFU KRT8 (11758183_x_at) / Fold change /veh KRT8 (11758183_x_at) / RFU CNN1 (11734310_a_at) / Fold change /veh CNN1 (11734310_a_at) / RFU VPS37D (11726825_at) / Fold change /veh VPS37D (11726825_at) / RFU C10orf10 (11716522_x_at) / Fold change /veh C10orf10 (11716522_x_at) / RFU KIR2DL2 /// KIR2DL4 /// KIR2DL5A /// KIR2DL5B /// KIR2DS1 /// KIR2DS2 /// KIR2DS3 /// KIR2DS4 /// KIR3DL3 /// KIR3DL3 /// KIR3DS1 (11738374_at) / Fold change /veh KIR2DL2 /// KIR2DL4 /// KIR2DL5A /// KIR2DL5B /// KIR2DS1 /// KIR2DS2 /// KIR2DS3 /// KIR2DS4 /// KIR3DL3 /// KIR3DL3 /// KIR3DS1 (11738374_at) / RFU C1QL1 (11718748_at) / Fold change /veh C1QL1 (11718748_at) / RFU TMPRSS4 (11747572_a_at) / Fold change /veh TMPRSS4 (11747572_a_at) / RFU HAMP (11756126_x_at) / Fold change /veh HAMP (11756126_x_at) / RFU RNFT2 (11725882_a_at) / Fold change /veh RNFT2 (11725882_a_at) / RFU NR4A2 (11747474_a_at) / Fold change /veh NR4A2 (11747474_a_at) / RFU ABCC12 (11746883_a_at) / Fold change /veh ABCC12 (11746883_a_at) / RFU TMEM136 (11760407_x_at) / Fold change /veh TMEM136 (11760407_x_at) / RFU CLDN22 /// WWC2 (11732394_at) / Fold change /veh CLDN22 /// WWC2 (11732394_at) / RFU HLA-DPB1 (11760878_x_at) / Fold change /veh HLA-DPB1 (11760878_x_at) / RFU SPINT1 (11716480_a_at) / Fold change /veh SPINT1 (11716480_a_at) / RFU GAP43 (11754022_s_at) / Fold change /veh GAP43 (11754022_s_at) / RFU A4GNT (11735810_at) / Fold change /veh A4GNT (11735810_at) / RFU PRB3 (11715151_x_at) / Fold change /veh PRB3 (11715151_x_at) / RFU TUBB4B (11761932_at) / Fold change /veh TUBB4B (11761932_at) / RFU CAPN14 (11732068_a_at) / Fold change /veh CAPN14 (11732068_a_at) / RFU TMCC2 (11721928_a_at) / Fold change /veh TMCC2 (11721928_a_at) / RFU IRGQ (11745062_a_at) / Fold change /veh IRGQ (11745062_a_at) / RFU FAM174B (11720279_a_at) / Fold change /veh FAM174B (11720279_a_at) / RFU TMPRSS4 (11748680_a_at) / Fold change /veh TMPRSS4 (11748680_a_at) / RFU FAM212B (11763350_a_at) / Fold change /veh FAM212B (11763350_a_at) / RFU PLEKHG5 (11743358_a_at) / Fold change /veh PLEKHG5 (11743358_a_at) / RFU ZSCAN30 (11745921_a_at) / Fold change /veh ZSCAN30 (11745921_a_at) / RFU CMKLR1 (11741424_a_at) / Fold change /veh CMKLR1 (11741424_a_at) / RFU LOC101060620 /// MAPK8IP1 (11723275_at) / Fold change /veh LOC101060620 /// MAPK8IP1 (11723275_at) / RFU SPTSSB (11747773_x_at) / Fold change /veh SPTSSB (11747773_x_at) / RFU PRSS12 (11739890_at) / Fold change /veh PRSS12 (11739890_at) / RFU BIN1 (11741810_x_at) / Fold change /veh BIN1 (11741810_x_at) / RFU WNT11 (11732464_a_at) / Fold change /veh WNT11 (11732464_a_at) / RFU C10orf10 (11716521_a_at) / Fold change /veh C10orf10 (11716521_a_at) / RFU C5orf56 (11738089_at) / Fold change /veh C5orf56 (11738089_at) / RFU CYB561 (11721691_x_at) / Fold change /veh CYB561 (11721691_x_at) / RFU ANKRD19P (11752326_a_at) / Fold change /veh ANKRD19P (11752326_a_at) / RFU OR2T12 /// OR2T33 /// OR2T8 (11738714_s_at) / Fold change /veh OR2T12 /// OR2T33 /// OR2T8 (11738714_s_at) / RFU VCAN (11748164_a_at) / Fold change /veh VCAN (11748164_a_at) / RFU JSRP1 (11732532_at) / Fold change /veh JSRP1 (11732532_at) / RFU KRTAP10-11 (11738290_x_at) / Fold change /veh KRTAP10-11 (11738290_x_at) / RFU MYO3A (11730013_a_at) / Fold change /veh MYO3A (11730013_a_at) / RFU EBF3 (11725865_a_at) / Fold change /veh EBF3 (11725865_a_at) / RFU CAMK2N1 (11719241_x_at) / Fold change /veh CAMK2N1 (11719241_x_at) / RFU C5orf56 (11738088_a_at) / Fold change /veh C5orf56 (11738088_a_at) / RFU OLFML3 (11715873_a_at) / Fold change /veh OLFML3 (11715873_a_at) / RFU LOC100653217 /// NTM (11731650_a_at) / Fold change /veh LOC100653217 /// NTM (11731650_a_at) / RFU MAPK11 (11762145_a_at) / Fold change /veh MAPK11 (11762145_a_at) / RFU FIZ1 (11724087_x_at) / Fold change /veh FIZ1 (11724087_x_at) / RFU OASL (11726364_x_at) / Fold change /veh OASL (11726364_x_at) / RFU SOX15 (11748057_x_at) / Fold change /veh SOX15 (11748057_x_at) / RFU CD79A (11719716_a_at) / Fold change /veh CD79A (11719716_a_at) / RFU HIST1H1D (11736915_at) / Fold change /veh HIST1H1D (11736915_at) / RFU CASKIN2 (11723855_a_at) / Fold change /veh CASKIN2 (11723855_a_at) / RFU LOC730098 (11760151_x_at) / Fold change /veh LOC730098 (11760151_x_at) / RFU OR4N2 (11742367_at) / Fold change /veh OR4N2 (11742367_at) / RFU PRRT2 (11749266_a_at) / Fold change /veh PRRT2 (11749266_a_at) / RFU SNX32 (11753110_a_at) / Fold change /veh SNX32 (11753110_a_at) / RFU CDHR5 (11726645_a_at) / Fold change /veh CDHR5 (11726645_a_at) / RFU RCAN1 (11760418_a_at) / Fold change /veh RCAN1 (11760418_a_at) / RFU FAM167A (11723789_a_at) / Fold change /veh FAM167A (11723789_a_at) / RFU FAM26E (11764081_at) / Fold change /veh FAM26E (11764081_at) / RFU ISYNA1 (11749810_s_at) / Fold change /veh ISYNA1 (11749810_s_at) / RFU ACY1 (11761880_at) / Fold change /veh ACY1 (11761880_at) / RFU 11764098_at / Fold change /veh 11764098_at / RFU SAMD14 (11745864_x_at) / Fold change /veh SAMD14 (11745864_x_at) / RFU NPB (11741838_a_at) / Fold change /veh NPB (11741838_a_at) / RFU TMPRSS6 (11731388_a_at) / Fold change /veh TMPRSS6 (11731388_a_at) / RFU KRTAP10-2 (11738614_at) / Fold change /veh KRTAP10-2 (11738614_at) / RFU ARHGAP8 /// PRR5-ARHGAP8 (11727945_x_at) / Fold change /veh ARHGAP8 /// PRR5-ARHGAP8 (11727945_x_at) / RFU KRTAP5-7 /// NADSYN1 (11734609_at) / Fold change /veh KRTAP5-7 /// NADSYN1 (11734609_at) / RFU RASL12 (11751679_a_at) / Fold change /veh RASL12 (11751679_a_at) / RFU CDKN2B (11736163_a_at) / Fold change /veh CDKN2B (11736163_a_at) / RFU PRF1 (11729649_at) / Fold change /veh PRF1 (11729649_at) / RFU, ZNF638 /// ZNF638-IT1 / Fold change vs veh, ZNF638 /// ZNF638-IT1 / RFU, PANK3 / Fold change vs veh, PANK3 / RFU, SH3YL1 / Fold change vs veh, SH3YL1 / RFU, ZEB2 / Fold change vs veh, ZEB2 / RFU, NRIP1 / Fold change vs veh, NRIP1 / RFU, PTTG1IP / Fold change vs veh, PTTG1IP / RFU, CAPN2 / Fold change vs veh, CAPN2 / RFU, MED14 / Fold change vs veh, MED14 / RFU, SNORA58 / Fold change vs veh, SNORA58 / RFU, C1orf63 / Fold change vs veh, C1orf63 / RFU, LRRFIP1 / Fold change vs veh, LRRFIP1 / RFU, NDUFAF7 / Fold change vs veh, NDUFAF7 / RFU, SLC12A2 / Fold change vs veh, SLC12A2 / RFU, IBTK / Fold change vs veh, IBTK / RFU, ESF1 / Fold change vs veh, ESF1 / Fold change vs veh, TMEM50B / RFU, TAOK1 / Fold change vs veh, TAOK1 / RFU, ACBD3 / Fold change vs veh, ACBD3 / RFU, TMA16 / Fold change vs veh, TMA16 / RFU, RWDD3 / Fold change vs veh, RWDD3 / RFU, BCAT1 / Fold change vs veh, BCAT1 / RFU, EDEM3 / Fold change vs veh, EDEM3 / RFU, TMEM33 / Fold change vs veh, TMEM33 / RFU, WDR75 / Fold change vs veh, WDR75 / RFU, AHCTF1 / Fold change vs veh, AHCTF1 / RFU, TFRC / Fold change vs veh, TFRC / RFU, ZDHHC17 / Fold change vs veh, ZDHHC17 / RFU, NOM1 / Fold change vs veh, NOM1 / RFU, ARL8B / Fold change vs veh, ARL8B / RFU, ZBTB11 / Fold change vs veh, ZBTB11 / RFU, TAMM41 / Fold change vs veh, TAMM41 / RFU, KIAA1704 /// LOC100996395 / Fold change vs veh, KIAA1704 /// LOC100996395 / RFU, ING1 / Fold change vs veh, ING1 / RFU, TRMT61B / Fold change vs veh, TRMT61B / RFU, FUBP3 / Fold change vs veh, FUBP3 / RFU, TP53 / Fold change vs veh, TP53 / RFU, TNKS2 / Fold change vs veh, TNKS2 / RFU, ZFP14 / Fold change vs veh, ZFP14 / RFU, ACTR2 / Fold change vs veh, ACTR2 / RFU, PPP3R1 / Fold change vs veh, PPP3R1 / RFU, PIK3R1 / Fold change vs veh, PIK3R1 / RFU, HNRNPA1 / Fold change vs veh, HNRNPA1 / RFU, RNF170 / Fold change vs veh, RNF170 / RFU, ZNF28 / Fold change vs veh, ZNF28 / RFU, RNGTT / Fold change vs veh, RNGTT / RFU, OGT / Fold change vs veh, OGT / RFU, BRD1 / Fold change vs veh, BRD1 / RFU, MARS / Fold change vs veh, MARS / RFU, ZNF655 / Fold change vs veh, ZNF655 / RFU, FAHD1 / Fold change vs veh, FAHD1 / RFU, BDP1 / Fold change vs veh, BDP1 / RFU, LRRCC1 / Fold change vs veh, LRRCC1 / RFU, ARID1A / Fold change vs veh, ARID1A / RFU, ZNF146 / Fold change vs veh, ZNF146 / RFU, ZNF330 / Fold change vs veh, ZNF330 / RFU, GPN3 / Fold change vs veh, GPN3 / RFU, C9orf123 / Fold change vs veh, C9orf123 / RFU, N4BP2L2 / Fold change vs veh, N4BP2L2 / RFU, ARFIP1 / Fold change vs veh, ARFIP1 / RFU, FAM179B / Fold change vs veh, FAM179B / RFU, BCL10 / Fold change vs veh, BCL10 / RFU, UHRF1BP1L / Fold change vs veh, UHRF1BP1L / RFU, BET1 / Fold change vs veh, BET1 / RFU, CNOT2 / Fold change vs veh, CNOT2 / RFU, ZNF268 / Fold change vs veh, ZNF268 / Fold change vs veh, ZNF507 / RFU, DGCR2 / Fold change vs veh, DGCR2 / RFU, WDSUB1 / Fold change vs veh, WDSUB1 / Fold change vs veh, HSP90B1 /// MIR3652 / RFU, ADSS / Fold change vs veh, ADSS / RFU, GK / Fold change vs veh, GK / RFU, ZNF148 / Fold change vs veh, ZNF148 / RFU, TAF9 / Fold change vs veh, TAF9 / RFU, SLC1A5 / Fold change vs veh, SLC1A5 / RFU, SLMO2 / Fold change vs veh, SLMO2 / RFU, ABCC4 / Fold change vs veh, ABCC4 / RFU, LOC101060439 /// RAP1B / Fold change vs veh, LOC101060439 /// RAP1B / RFU, RFX7 / Fold change vs veh, RFX7 / RFU, GTPBP10 / Fold change vs veh, GTPBP10 / RFU, CNEP1R1 / Fold change vs veh, CNEP1R1 / RFU, BIVM-ERCC5 /// ERCC5 / Fold change vs veh, BIVM-ERCC5 /// ERCC5 / RFU, ILF3 / Fold change vs veh, ILF3 / RFU 11762660_at / Fold change /veh 11762660_at / RFU VCAN (11757783_s_at) / Fold change /veh VCAN (11757783_s_at) / RFU DDX43 (11728927_at) / Fold change /veh DDX43 (11728927_at) / RFU KRT8 (11758188_x_at) / Fold change /veh KRT8 (11758188_x_at) / RFU NKD1 (11759106_at) / Fold change /veh NKD1 (11759106_at) / RFU SRD5A1 (11742802_a_at) / Fold change /veh SRD5A1 (11742802_a_at) / RFU TPSAB1 /// TPSB2 (11721975_s_at) / Fold change /veh TPSAB1 /// TPSB2 (11721975_s_at) / RFU GSTM3 (11746129_a_at) / Fold change /veh GSTM3 (11746129_a_at) / RFU IL23R (11737362_x_at) / Fold change /veh IL23R (11737362_x_at) / RFU TMEM51 (11727254_a_at) / Fold change /veh TMEM51 (11727254_a_at) / RFU PIWIL2 (11732686_x_at) / Fold change /veh PIWIL2 (11732686_x_at) / RFU ORM1 (11744905_x_at) / Fold change /veh ORM1 (11744905_x_at) / RFU CCDC152 (11743942_at) / Fold change /veh CCDC152 (11743942_at) / RFU ECM1 (11717891_a_at) / Fold change /veh ECM1 (11717891_a_at) / RFU IL23R (11748794_a_at) / Fold change /veh IL23R (11748794_a_at) / RFU TNFAIP8L3 (11732012_x_at) / Fold change /veh TNFAIP8L3 (11732012_x_at) / RFU MBOAT4 (11741988_at) / Fold change /veh MBOAT4 (11741988_at) / RFU 11764193_at / Fold change /veh 11764193_at / RFU TMEM53 (11763286_at) / Fold change /veh TMEM53 (11763286_at) / RFU MAGEB2 (11727129_at) / Fold change /veh MAGEB2 (11727129_at) / RFU TMEM200A (11744735_a_at) / Fold change /veh TMEM200A (11744735_a_at) / RFU CCDC152 (11751479_a_at) / Fold change /veh CCDC152 (11751479_a_at) / RFU FAM211A (11726209_a_at) / Fold change /veh FAM211A (11726209_a_at) / RFU RGS16 (11746705_a_at) / Fold change /veh RGS16 (11746705_a_at) / RFU VCAN (11755009_s_at) / Fold change /veh VCAN (11755009_s_at) / RFU RHOB (11743442_s_at) / Fold change /veh RHOB (11743442_s_at) / RFU RGS16 (11720943_a_at) / Fold change /veh RGS16 (11720943_a_at) / RFU RGS16 (11720944_at) / Fold change /veh RGS16 (11720944_at) / RFU, VPS4B / Fold change vs veh, VPS4B / RFU, CREB1 / Fold change vs veh, CREB1 / RFU, DNAJC13 / Fold change vs veh, DNAJC13 / RFU, GNAQ / Fold change vs veh, GNAQ / RFU, CDK5R1 / Fold change vs veh, CDK5R1 / RFU, ZRANB3 / Fold change vs veh, ZRANB3 / RFU, CUL4A / Fold change vs veh, CUL4A / RFU, CCNY / Fold change vs veh, CCNY / RFU, UFL1 / Fold change vs veh, UFL1 / RFU, COG3 / Fold change vs veh, COG3 / RFU, DIAPH2 / Fold change vs veh, DIAPH2 / RFU, SKA2 / Fold change vs veh, SKA2 / RFU, AFF3 / Fold change vs veh, AFF3 / RFU, LMF1 / Fold change vs veh, LMF1 / RFU, IPO11 / Fold change vs veh, IPO11 / RFU, DFFB / Fold change vs veh, DFFB / RFU, FOXP1 / Fold change vs veh, FOXP1 / RFU, CARD8 / Fold change vs veh, CARD8 / RFU, STRN3 / Fold change vs veh, STRN3 / RFU, ADK / Fold change vs veh, ADK / RFU, RASSF2 / Fold change vs veh, RASSF2 / RFU, WIPF1 / Fold change vs veh, WIPF1 / RFU, LARP1B / Fold change vs veh, LARP1B / RFU, RASA1 / Fold change vs veh, RASA1 / RFU, RB1 / Fold change vs veh, RB1 / RFU, PPFIA1 / Fold change vs veh, PPFIA1 / RFU, MAT2A / Fold change vs veh, MAT2A / RFU, CCT5 / Fold change vs veh, CCT5 / RFU, WDR92 / Fold change vs veh, WDR92 / RFU, CUX1 / Fold change vs veh, CUX1 / RFU, TTC7A / Fold change vs veh, TTC7A / RFU, TMEM135 / Fold change vs veh, TMEM135 / RFU, DEPTOR / Fold change vs veh, DEPTOR / RFU, CPM / Fold change vs veh, CPM / RFU, DNAJB6 / Fold change vs veh, DNAJB6 / RFU, CACNA2D3 / Fold change vs veh, CACNA2D3 / RFU, DTX4 / Fold change vs veh, DTX4 / RFU, TFCP2 / Fold change vs veh, TFCP2 / RFU, GMCL1 /// GMCL1P1 / Fold change vs veh, GMCL1 /// GMCL1P1 / RFU, AEBP2 / Fold change vs veh, AEBP2 / RFU, SNHG1 /// SNORD22 /// SNORD25 /// SNORD26 /// SNORD27 /// SNORD28 /// SNORD29 /// SNORD31 / Fold change vs veh, SNHG1 /// SNORD22 /// SNORD25 /// SNORD26 /// SNORD27 /// SNORD28 /// SNORD29 /// SNORD31 / Fold change (Aza/veh), C12orf56 (ProbeSet 11735607_a_at) / Fold change (ACY-1035/veh), C12orf56 (ProbeSet 11735607_a_at) / Fold change (Aza/veh), FGFR1OP (ProbeSet 11751329_s_at) / Fold change (ACY-1035/veh), FGFR1OP (ProbeSet 11751329_s_at) / Fold change (Aza/veh), VPS36 (ProbeSet 11739960_a_at) / Fold change (ACY-1035/veh), VPS36 (ProbeSet 11739960_a_at) / RFU SYPL1 (11715823_x_at) / Fold change /veh SYPL1 (11715823_x_at) / RFU IGFBP7 (11715501_s_at) / Fold change /veh IGFBP7 (11715501_s_at) / RFU REEP3 (11722064_at) / Fold change /veh REEP3 (11722064_at) / RFU IGLL1 (11728026_x_at) / Fold change /veh IGLL1 (11728026_x_at): dose or concentration left out as unconfirmed
Conditions: MV-4-11 cells, 48 hours

Nc1ncn([C@@H]2O[C@H](CO)[C@@H](O)[C@H]2O)c(=O)n1 [azacitidine]
RFU VPS37D (11726825_at): 18.02 RFU
